Converted amounts (≈) assume the structure as drawn.

The MIC99 is an inhibitory concentration at the 99% level, which refers to growth in some studies and to a panel of isolates in others. Read a high MIC99 as lower susceptibility. The IC50 is the concentration at which inhibition is half-maximal. Low values mean inhibition by little substance, high ones a need for much substance.

The test system of experiment [1] is Mycobacterium tuberculosis. As to the kind of experiment: Antimycobacterial activity against Mycobacterium tuberculosis H37Rv CNCTC My 331/88 after 21 days by micromethod. It counts as functional. The following applies: H37Rv CNCTC My 331/88, 504 h.
In experiment [2] the test system is Mycobacterium kansasii. As to the kind of experiment: Antimycobacterial activity against Mycobacterium kansasii isolate 6509/96 after 14 days by micromethod. It counts as functional. The following applies: isolate 6509/96, 336 h.
Experiment [3] relates to Mycobacterium kansasii. As to the kind of experiment: Antimycobacterial activity against Mycobacterium kansasii CNCTC My 235/80 after 21 days by micromethod. The following applies: CNCTC My 235/80, 504 h. It counts as functional.
The test system of experiment [4] is Mycobacterium tuberculosis. As to the kind of experiment: Antimycobacterial activity against Mycobacterium tuberculosis H37Rv CNCTC My 331/88 after 14 days by micromethod. The experiment is classed as functional. The following applies: H37Rv CNCTC My 331/88, 336 h.
Experiment [5] concerns Mycobacterium kansasii. As to the kind of experiment: Antimycobacterial activity against Mycobacterium kansasii isolate 6509/96 after 21 days by micromethod. It counts as functional. Conditions: isolate 6509/96, 504 h.
The subject of experiment [6] is Mycobacterium kansasii. As to the kind of experiment: Antimycobacterial activity against Mycobacterium kansasii CNCTC My 235/80 after 14 days by micromethod. It counts as functional. The following applies: CNCTC My 235/80, 336 h.
Experiment [7] relates to Mycobacterium avium. As to the kind of experiment: Antimycobacterial activity against Mycobacterium avium CNCTC My 330/80 after 14 days by micromethod. It counts as functional. Conditions: CNCTC My 330/80, 336 h.
Experiment [8] concerns Mycobacterium avium. As to the kind of experiment: Antimycobacterial activity against Mycobacterium avium CNCTC My 330/80 after 21 days by micromethod. The following applies: CNCTC My 330/80, 504 h. It counts as functional.
The test system of experiment [9] is Mycobacterium kansasii. As to the kind of experiment: Antimycobacterial activity against Mycobacterium kansasii CNCTC My 235/80 after 7 days by micromethod. It counts as functional. The following applies: CNCTC My 235/80, 168 h.
The test system of a further experiment is CHO-K1. As to the kind of experiment: Cytotoxicity against CHOK1 cells after 24 hrs by MTT assay. The experiment is classed as cell-based. The following applies: Cricetulus griseus, CHO-K1, 24 h. In general terms: Formazan colour is commonly taken as a measure of viable cells.
The subject of experiment [10] is Mycobacterium kansasii. As to the kind of experiment: Antimycobacterial activity against Mycobacterium kansasii isolate 6509/96 after 7 days by micromethod. The experiment is classed as functional. Conditions: isolate 6509/96, 168 h.

With `O=[N+]([O-])c1cc(-c2nnn(Cc3ccc(Cl)c(Cl)c3)n2)cc([N+](=O)[O-])c1`, the MIC99 in experiment [1] turned out to be 0.125 µM (≈ 0.0494 µg/mL); against Mycobacterium kansasii [2], 0.5 µM (≈ 0.198 µg/mL); against Mycobacterium kansasii [3], 1 µM (≈ 0.395 µg/mL); in experiment [4], 0.125 µM (≈ 0.0494 µg/mL); against Mycobacterium kansasii [5], 0.5 µM (≈ 0.198 µg/mL); with Mycobacterium kansasii [6], 0.5 µM (≈ 0.198 µg/mL). Besides, the MIC99 in the experiment on Mycobacterium avium [7] turned out to be 4 µM (≈ 1.58 µg/mL); in the experiment on Mycobacterium avium [8] it was 8 µM (≈ 3.16 µg/mL); against Mycobacterium kansasii [9], 0.25 µM (≈ 0.0988 µg/mL); against Mycobacterium kansasii [10], 0.25 µM (≈ 0.0988 µg/mL). The molecule further had an IC50 in the experiment on CHO-K1 of 37 µM.
As for `O=[N+]([O-])c1cc(-c2nnn(Cc3cccc(F)c3)n2)cc([N+](=O)[O-])c1`, the MIC99 in experiment [1] amounted to 1 µM (≈ 0.344 µg/mL); in the experiment on Mycobacterium kansasii [2], 1 µM (≈ 0.344 µg/mL); with Mycobacterium kansasii [3], 2 µM (≈ 0.689 µg/mL); in experiment [4], 1 µM (≈ 0.344 µg/mL); in the experiment with Mycobacterium kansasii [5], 2 µM (≈ 0.689 µg/mL); against Mycobacterium kansasii [6] it was 2 µM (≈ 0.689 µg/mL). Also, the MIC99 is 8 µM (≈ 2.75 µg/mL) against Mycobacterium avium [7], 16 µM (≈ 5.51 µg/mL) with Mycobacterium avium [8], 1 µM (≈ 0.344 µg/mL) with Mycobacterium kansasii [9] and 0.5 µM (≈ 0.172 µg/mL) in the experiment with Mycobacterium kansasii [10]. This molecule showed an IC50 in the experiment with CHO-K1 of 315 µM.
In the case of `O=[N+]([O-])c1cc(-c2nnn(Cc3ccccc3)n2)cc([N+](=O)[O-])c1`, the MIC99 in experiment [1] turned out to be 1 µM (≈ 0.326 µg/mL); in the experiment on Mycobacterium kansasii [2], 2 µM (≈ 0.653 µg/mL); with Mycobacterium kansasii [3], 2 µM (≈ 0.653 µg/mL); in experiment [4], 0.5 µM (≈ 0.163 µg/mL); with Mycobacterium kansasii [5], 2 µM (≈ 0.653 µg/mL); against Mycobacterium kansasii [6], 2 µM (≈ 0.653 µg/mL). The MIC99 in the experiment on Mycobacterium avium [7] amounted to 8 µM (≈ 2.61 µg/mL); in the experiment with Mycobacterium avium [8], 8 µM (≈ 2.61 µg/mL); against Mycobacterium kansasii [9] it was 1 µM (≈ 0.326 µg/mL); against Mycobacterium kansasii [10], 1 µM (≈ 0.326 µg/mL). This molecule showed an IC50 with CHO-K1 of 150 µM.
`COc1ccc(-n2nnnc2SCn2nnc(-c3cc([N+](=O)[O-])cc([N+](=O)[O-])c3)n2)cc1`: the MIC99 in experiment [1] was 0.5 µM (≈ 0.228 µg/mL); against Mycobacterium kansasii [2] it was 0.5 µM (≈ 0.228 µg/mL); with Mycobacterium kansasii [3], 2 µM (≈ 0.913 µg/mL); in experiment [4] it was 0.25 µM (≈ 0.114 µg/mL); against Mycobacterium kansasii [5], 1 µM (≈ 0.456 µg/mL); with Mycobacterium kansasii [6] it was 1 µM (≈ 0.456 µg/mL). In addition, the MIC99 in the experiment with Mycobacterium avium [7] turned out to be 1 µM (≈ 0.456 µg/mL); in the experiment with Mycobacterium avium [8], 1 µM (≈ 0.456 µg/mL); against Mycobacterium kansasii [9] it was 0.5 µM (≈ 0.228 µg/mL); against Mycobacterium kansasii [10] it was 0.25 µM (≈ 0.114 µg/mL).
Consider `Cn1nnc(-c2cc([N+](=O)[O-])cc([N+](=O)[O-])c2)n1`, for which the MIC99 worked out at 32 µM (≈ 8.01 µg/mL) in experiment [1]; 62.5 µM (≈ 15.6 µg/mL) in the experiment on Mycobacterium kansasii [2]; 125 µM (≈ 31.3 µg/mL) against Mycobacterium kansasii [3]; 32 µM (≈ 8.01 µg/mL) in experiment [4]; 62.5 µM (≈ 15.6 µg/mL) with Mycobacterium kansasii [5]; 125 µM (≈ 31.3 µg/mL) against Mycobacterium kansasii [6]. For the same molecule, the MIC99 came to 62.5 µM (≈ 15.6 µg/mL) with Mycobacterium avium [7], 125 µM (≈ 31.3 µg/mL) in the experiment with Mycobacterium avium [8], 62.5 µM (≈ 15.6 µg/mL) against Mycobacterium kansasii [9] and 62.5 µM (≈ 15.6 µg/mL) in the experiment on Mycobacterium kansasii [10].
On to `O=[N+]([O-])c1cc(-c2nnn(Cc3ccc(F)c(F)c3)n2)cc([N+](=O)[O-])c1`, for which the MIC99 in experiment [1] was 0.5 µM (≈ 0.181 µg/mL); in the experiment on Mycobacterium kansasii [2], 2 µM (≈ 0.725 µg/mL); against Mycobacterium kansasii [3], 4 µM (≈ 1.45 µg/mL); in [4], 0.25 µM (≈ 0.0906 µg/mL); against Mycobacterium kansasii [5], 2 µM (≈ 0.725 µg/mL); in the experiment with Mycobacterium kansasii [6], 2 µM (≈ 0.725 µg/mL). In addition, the MIC99 in the experiment with Mycobacterium avium [7] is 4 µM (≈ 1.45 µg/mL); against Mycobacterium avium [8] it was 8 µM (≈ 2.9 µg/mL); in the experiment on Mycobacterium kansasii [9], 1 µM (≈ 0.362 µg/mL); against Mycobacterium kansasii [10] it was 1 µM (≈ 0.362 µg/mL).
On to `O=[N+]([O-])c1cc(-c2nnn(CCSc3nnnn3-c3ccc(Br)cc3)n2)cc([N+](=O)[O-])c1`, for which the MIC99 in experiment [1] worked out at 0.5 µM (≈ 0.26 µg/mL); against Mycobacterium kansasii [2], 1 µM (≈ 0.519 µg/mL); against Mycobacterium kansasii [3] it was 1 µM (≈ 0.519 µg/mL); in [4], 0.5 µM (≈ 0.26 µg/mL); against Mycobacterium kansasii [5], 1 µM (≈ 0.519 µg/mL); with Mycobacterium kansasii [6], 1 µM (≈ 0.519 µg/mL). Further, the MIC99 amounted to 2 µM (≈ 1.04 µg/mL) with Mycobacterium avium [7], 2 µM (≈ 1.04 µg/mL) against Mycobacterium avium [8], 0.5 µM (≈ 0.26 µg/mL) with Mycobacterium kansasii [9] and 1 µM (≈ 0.519 µg/mL) against Mycobacterium kansasii [10].
Turning to `O=[N+]([O-])c1cc(-c2nnn(CSc3nnnn3-c3ccc(Br)cc3)n2)cc([N+](=O)[O-])c1`, the MIC99 in experiment [1] came to 0.03 µM (≈ 0.0152 µg/mL); against Mycobacterium kansasii [2], 0.125 µM (≈ 0.0632 µg/mL); in the experiment on Mycobacterium kansasii [3] it was 0.5 µM (≈ 0.253 µg/mL); in [4] it was 0.03 µM (≈ 0.0152 µg/mL); in the experiment on Mycobacterium kansasii [5], 0.25 µM (≈ 0.126 µg/mL); in the experiment with Mycobacterium kansasii [6] it was 0.25 µM (≈ 0.126 µg/mL). For the same molecule, the MIC99 with Mycobacterium kansasii [9] was 0.125 µM (≈ 0.0632 µg/mL); against Mycobacterium kansasii [10] it was 0.06 µM (≈ 0.0303 µg/mL). The IC50 with CHO-K1 amounted to 29 µM.
